Work on `Cc1cc(Br)cc(/C=N/O)c1F` yielded a melting point of 126 to 127 °C.
For `OCn1nnc2ccccc21`, the melting point was 148 °C.
Work on `CC1Cc2cc3c(cc2C(c2ccc(NC=O)cc2)=NN1C=O)OCO3` (stereo unspecified) yielded a melting point of 193 to 195 °C.
`COC(=O)c1ccc2c(nnn2C)c1C(=O)OC` gave a melting point of 146 to 147 °C.
For `COc1cccnc1C(O)c1ccc(NC(=O)C2=Cc3cc(-c4ccc(C)cc4)ccc3OCC2)cc1` (stereo unspecified), the melting point was 232 to 233 °C.
Compound `O=C1CC2CC(O)(c3ccccc3)CC2C1` (stereo unspecified) has a melting point of 158 to 159 °C.
For `COC(=O)C(Cc1ccccc1)Oc1ccc(-c2ccc(-c3c(Cc4ccccc4)oc4ccccc34)cc2)cc1` (stereo unspecified), the melting point was 67 to 69 °C.
In the case of `CCCCc1ncc(C=O)n1Cc1ccc(C(=O)OC)c2ccccc12`, the melting point was 95.5 to 97 °C.
Compound `O=c1oc(-c2ccccc2)cc(O)c1C(CC1CC1)SCc1ccccc1` (stereo unspecified) has a melting point of 59 to 61 °C.
With `CC1(C)Oc2ccc(OC(F)F)cc2[C@@H](N2CCCCC2=O)[C@@H]1O` (relative stereo) the melting point was 165 °C.
`O=C(CCc1oc(-n2cncn2)nc1-c1ccc(Cl)cc1)NCCCl` showed a melting point of 157 to 158 °C.
For `O=S1CCN(c2nc(N3CCNCC3)cc3c(F)cccc23)CC1`, the melting point was 213 to 215 °C.
Compound `O=C1CCCc2ccc(Nc3ncc(Cl)c(Nc4ccccc4S(=O)(=O)N4CCCC4)n3)cc2N1` has a melting point of 249 to 251 °C.
Compound `CCOC(=O)c1ccc2nccn2c1` has a melting point of 93 to 94 °C.
For `CCCc1c(OCCCCCOc2ccc3ccc(OCC(=O)O)cc3c2CCC(=O)O)ccc2c1OCCC2=O`, the melting point was 175 to 178 °C.
Compound `Cc1ccc(-c2ncn(-c3ccc(C(F)(F)C(F)(F)C(F)(F)F)cc3)n2)cc1` has a melting point of 140 to 143 °C.
For `CC(C)(C)OC(=O)[C@@H]1CS[C@H](c2ccccc2)N1C(=O)CNC(=O)Nc1cccc(C(=O)O)c1`, the melting point was 134 °C.
`CCOCOC1(C(=O)COC(C)=O)C(C)CC2C3CC(C)C4=CC(=O)C=CC4(C)C3C(O)CC21C` (stereo unspecified) showed a melting point of 137 to 139 °C.
With `CS(=O)(=O)c1ccc(C(Cc2ccc(F)cc2Cl)C(=O)Nc2nc3ccccc3o2)cc1` (stereo unspecified) the melting point was 127 to 128 °C.
For `COC(=O)C=C(C)c1ccc2c(ccn2S(=O)(=O)c2ccccc2)c1`, the melting point was 80 to 85 °C.
Work on `O=C1CCC2C3Cc4ccc(O)cc4C2(CCN3CC2CC2)C1` (stereo unspecified) yielded a melting point of 125 to 127 °C.
Compound `CCN(CC)CCNC(=O)c1ccccc1NC(=O)COc1ccc(Cl)cc1` has a melting point of 109 °C.
For `CCN1CCN(c2nc(-c3ccccc3)nc3sc(C#N)c(C)c23)CC1`, the melting point was 178 to 179 °C.
`COc1cc(OC)c2c(=O)[nH]c(-c3cc(C)c(OCCO)c(C)c3)cc2c1` gave a melting point of 193 to 195 °C.
In the case of `CN(C=O)CC1(N(C)C)CCCCC1`, the melting point was 59 to 60 °C.
`CN1CCN(C(=S)Cc2ccc(S(C)(=O)=O)cc2)CC1` gave a melting point of 172 to 177 °C.
With `CCOC(=O)c1c(C(F)(F)F)nc(OC)c(C#N)c1OC` the melting point was 32 to 34 °C.
`Cc1oc(-c2ccccc2)nc1COc1ccc2cc(C/C=C/O)oc2c1` gave a melting point of 143 to 144 °C.
With `Cc1cc(COC2CCCCO2)nc(N)n1` (stereo unspecified) the melting point was 109 to 110 °C.
`CC(=O)C1=C(O)C(=C(C)Nc2cccc(S(N)(=O)=O)c2)C(=O)OC1=O` showed a melting point of 237 °C.
`CC(C(=O)O)c1cccc(NC(=O)NC2N=C(c3ccccc3F)c3ccccc3N(CC(=O)N3CC4CCC(CC4)C3)C2=O)c1` (racemic) showed a melting point of 187 to 204 °C.
In the case of `O=C(NCCCOc1ccncc1)c1cccs1`, the melting point was 123 to 125 °C.
Work on `Cc1ccc(Sc2ncnc3ccccc23)cc1` yielded a melting point of 96 °C.
For `O=C1Nc2ccccc2C12CCCC(Br)C2` (stereo unspecified), the melting point was 196 to 199 °C.
Compound `CCOc1nc(N)c2ncn(C3C=CCCC3)c2n1` (stereo unspecified) has a melting point of 67 to 72 °C.
With `COc1cc2c(cc1Cl)CCN(C)CC2c1ccc(I)cc1` (stereo unspecified) the melting point was 130 to 132 °C.
With `COc1ccc(-n2cc(C#N)c(=O)[nH]c2=O)cc1` the melting point was 304 to 306 °C.
`CN(CCO)C(=O)Cn1nc(-c2ccccc2O)nc1-c1ccccc1O` showed a melting point of 101 to 104 °C.
Compound `O=c1cc(O)c(Cl)cn1COCc1ccccc1` has a melting point of 165 to 167 °C.
Compound `Cn1nc2nnsc2c1C#N` has a melting point of 111 to 114 °C.
In the case of `N#Cc1cc(Br)c(OC(=O)OCOC(=O)c2ccc(Oc3ccc(C(F)(F)F)cc3Cl)cc2[N+](=O)[O-])c(Br)c1`, the melting point was 122 to 123 °C.
Work on `C1=NCC2Cc3ccccc3Cc3cccc1c32` (stereo unspecified) yielded a melting point of 91 to 93 °C.
Compound `CCCCCCCCOc1ccc(C(=O)Oc2ccc(-c3ccc(O)cc3)cc2)cc1` has a melting point of 183 °C.
In the case of `CN(c1ccc(O)cc1)c1nc2cc(Cl)ccc2o1`, the melting point was 216 to 217 °C.
`COc1cc(CBr)c(Br)cc1OCc1ccccc1` showed a melting point of 103 to 105 °C.
`CCOC(=O)C=Cc1cc(C=CC(N)=O)cc(C(O)c2ccc(F)cc2)c1` (stereo unspecified) showed a melting point of 197 to 199 °C.
`CN1C(=O)C(C)(C)N=C(c2ccccc2F)c2cc([N+](=O)[O-])cc(Br)c21` gave a melting point of 228 °C.
For `O=CN1CCN(C2=C(O)C(=O)c3ccccc3C2=O)CC1`, the melting point was 200 to 203 °C.
In the case of `COc1cc(-c2snnc2C)cc2oc(=O)c(C)c(C)c12`, the melting point was 204 to 206 °C.
Work on `O=C(O)CNc1nc(NCc2ccc(NC(=O)c3ccc(F)cc3)cc2)c2ccccc2n1` yielded a melting point of 235 °C.
`O=C1CC(c2cccs2)CN1` (stereo unspecified) showed a melting point of 75 to 76.5 °C.
Work on `CC(C)C(OC(=O)NC(C)(Cc1ccccc1)C(=O)NC(Cc1ccc(O)cc1)C(=O)NCCCCCCCO)c1ccccc1` (stereo unspecified) yielded a melting point of 70 to 76 °C.
In the case of `O=C1Nc2ccc(F)cc2C(=O)N2CC[C@@H]12`, the melting point was 216 to 217 °C.
Work on `O=C(Nc1ccccc1)c1ccc(C(=O)Nc2nnc(-c3cc(Cl)cc(Cl)c3O)s2)cc1` yielded a melting point of 342 °C.
Work on `c1ccc(C(CCCc2c[nH]cn2)c2ccccc2)cc1` yielded a melting point of 204 to 206 °C.
In the case of `Nc1ccccc(Br)c1=O`, the melting point was 133 to 135 °C.
In the case of `COc1cc2c(c(OC)c1)C1=C(CC2)C2=CCC(=O)C2(C)CC1` (stereo unspecified), the melting point was 120 to 121 °C.
In the case of `CCCNC(=O)c1ccc(C)c(-c2nc(N(C)CCCN(C)C)nc3c2ccc(=O)n3-c2c(F)cccc2F)c1`, the melting point was 104 to 109 °C.
Work on `CCOC(=O)COC(CC)c1ccc(-c2ccc(Cl)cc2)cc1` (stereo unspecified) yielded a melting point of 170 to 172 °C.
With `O=C(Nc1c(C(O)(C(F)(F)F)C(F)(F)F)ccc2ccccc12)c1ccno1` the melting point was 162 to 164 °C.
With `CCCc1c(OCCCOc2ccccc2C(=O)NCCCCc2cccnc2)ccc(C(C)=O)c1O` the melting point was 104 to 107 °C.
`NS(=O)(=O)c1ccc2c(c1)C=C(C(=O)O)C(C(F)(F)F)O2` (stereo unspecified) gave a melting point of 188 to 190 °C.
With `C[C@@H](n1ncn(-c2ccncc2)c1=O)[C@@]1(c2ccc(F)cc2F)CO1` the melting point was 96 to 97 °C.
With `CCc1c(C)nc(-c2ccccc2)nc1NCC(=O)N(C)c1ccc(Cl)cc1` the melting point was 142 to 143 °C.
Work on `C=CCc1c(-c2cc(=O)c3c(O)c(CC=C)c(O)c(CC=C)c3o2)ccc(OC)c1O` yielded a melting point of 122 to 123 °C.
`Cc1nc2c(cc1C(=O)O)CCCCC2` showed a melting point of 167 to 169 °C.
`COc1cc(C)nc(N(C)C(=O)NS(=O)(=O)c2cc(Cl)ccc2Cl)n1` showed a melting point of 182 to 185 °C.
In the case of `Cc1cc(NC(=O)Nc2cccc3c2C2CCCCN2C3=O)no1` (stereo unspecified), the melting point was 156 °C.
Work on `CCCCOCCOc1ccc(-c2ccc3c(c2)C=C(C(=O)OC)CCN3c2ccccc2)cc1` yielded a melting point of 80 to 82 °C.
In the case of `O=C(Nc1ccc(-c2ccccc2)s1)c1ccccc1`, the melting point was 202 to 203 °C.
With `Oc1ccc(Oc2cccc(Cl)n2)cc1` the melting point was 125 to 130 °C.
`C=CC(=O)Cc1ccc(-c2ccc(CC(=O)C=C)cc2)cc1` showed a melting point of 61 to 62 °C.
With `O=C1C=CC(c2ccccc2)(c2ccccc2)C=C1O` the melting point was 145 °C.
Work on `CC(C)(C)c1ccc(C(O)(c2ccc(C(C)(C)C)cc2)c2ncc[nH]2)cc1` yielded a melting point of 215 to 216 °C.
Compound `COc1cccc2oc(=O)c3c4c(ccc3c12)NC(C)(C)C=C4C` has a melting point of 247 to 248 °C.
With `O=C(c1ccccc1C(c1ccc(O)cc1)c1ccc(O)cc1)N(c1ccccc1)c1ccccc1` the melting point was 262 to 263 °C.
For `COc1ccc(-c2noc(C3CCCN(C(=O)c4ccccc4)C3)n2)cc1` (stereo unspecified), the melting point was 121 °C.
`CC(C)(C)c1cc(C2=Cc3cc(-c4ccccc4)ccc3C2)cc(C(C)(C)C)c1` showed a melting point of 122 to 123 °C.
Compound `CC(Br)(CBr)CS(=O)(=O)Oc1ccc([N+](=O)[O-])cc1` (stereo unspecified) has a melting point of 56 to 58 °C.
Compound `O=C(Nc1ccccc1SCc1ncon1)c1ccc(Cl)cc1` has a melting point of 103 °C.
In the case of `CCOC(=O)C1COc2cc(OC(C)=O)ccc2O1` (stereo unspecified), the melting point was 66 °C.
In the case of `CCCCc1nc(Cl)c(C=O)n1Cc1ccc2oc(-c3ccccc3-c3nnn[nH]3)c(Br)c2c1`, the melting point was 122 to 124 °C.
`CCN1CCN(c2cc3ccccc3c(=O)[nH]2)C[C@@H]1CO` gave a melting point of 171 to 173 °C.
`N=C(N)c1ccc(NC(=O)N(c2cccc(C(=N)N)c2)C2CCCCCC2)cc1` showed a melting point of 204 to 206 °C.
`O=C(Nc1ccc(Oc2ccnc(NCC3OCCO3)n2)c2ccccc12)c1cc(F)cc(N2CCCCC2)c1` showed a melting point of 96 to 98 °C.
Compound `Cc1ccc(Oc2ccc(-c3ccc(Cl)cc3)cc2)cc1` has a melting point of 130 °C.
For `CCOC(=O)COc1ccc2cc(-c3cc4ccccc4s3)ccc2c1Br`, the melting point was 178 to 181 °C.
`NNc1ccc(Cl)c(Cl)c1Cl` gave a melting point of 138 to 140 °C.
With `CN1C(=O)C(c2cccc(-c3cncnc3)c2)(c2cscn2)N=C1N` (stereo unspecified) the melting point was 234 to 237 °C.
With `OC1CCCc2cnc3cc(OCc4ccccc4)ccc3c21` (stereo unspecified) the melting point was 155 to 157 °C.
In the case of `O=C(O)CCN1CCN(c2ccccc2Cl)CC1`, the melting point was 210 to 213 °C.
`N#C[C@@H](Cc1ccccc1)Oc1c(Br)cc(-c2c3ccccc3c(Br)c3sc4ccccc4c23)cc1Br` gave a melting point of 160 to 165 °C.
`Cc1ccnc(C(=O)c2sc(Cl)nc2C)c1` gave a melting point of 115 to 116 °C.
Work on `CCOC(=O)c1cn(C)c2sc(CN3CCOCC3)c(C)c2c1=O` yielded a melting point of 172 to 173 °C.
Work on `COc1ccc(C(=O)Nc2ccc(C)c(Cl)c2)cc1NC(=S)Nc1cc(Cl)cc(Cl)c1` yielded a melting point of 195 to 196 °C.
Compound `COCCN(C)Cc1ccc(NC(=O)C#Cc2ccc(-c3ccc(Cl)cc3)cc2)cc1` has a melting point of 130 to 133 °C.
For `COC(=O)C(CCSC)N(C(=O)OC(C)(C)C)C(=O)c1ccc(N)cc1` (stereo unspecified), the melting point was 184 to 185 °C.
Work on `C=C1c2ccccc2CCc2ccccc21` yielded a melting point of 65.1 °C.
`CC(C)(C)c1cc(N(C(=O)CCC(=O)O)c2ccc(OC(=O)c3ccccc3)cc2)cc(C(C)(C)C)c1O` showed a melting point of 131 to 132 °C.
Work on `COc1cc(OC)nc(NC(=O)Oc2ccccc2)n1` yielded a melting point of 118 to 119 °C.
In the case of `Oc1ccc(O)c2c1CCCC2`, the melting point was 213 to 215 °C.
